Measured values reported in ChEMBL document CHEMBL6083251, “"Pseudosubstrate Envelope"/Free Energy Perturbation-Guided Design and Mechanistic Investigations of Benzothiazole HIV Capsid Modulators with High Ligand Efficiency” (J Med Chem, 2024).
pEC50: −log10 of the molar value.

Tests used:
[1] = target: Structural capsid protein (Human immunodeficiency virus 1) (UniProt Q76129); assay: Binding affinity to monomeric HIV-1 NL4.3 capsid protein assessed as dissociation rate (Koff) by SPR assay; conditions: filed as modulator
Sequence of Structural capsid protein (Human immunodeficiency virus 1) (Q76129 as listed by the source): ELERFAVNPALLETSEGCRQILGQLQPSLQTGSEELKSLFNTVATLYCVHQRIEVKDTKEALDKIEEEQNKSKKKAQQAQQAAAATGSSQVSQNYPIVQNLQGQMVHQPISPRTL

[2] = target: Structural capsid protein (Human immunodeficiency virus 1) (UniProt Q76129); assay: Binding affinity to monomeric HIV-1 NL4.3 capsid protein assessed as residence time by SPR assay; conditions: filed as modulator
[3] = target: Structural capsid protein (Human immunodeficiency virus 1) (UniProt Q76129); assay: Binding affinity to hexameric HIV-1 NL4.3 capsid protein assessed as residence time by SPR assay; conditions: filed as modulator
[4] = tested on: MT4; assay: Cytotoxicity against human MT4 cells assessed as reduction in cell viability incubated for 5 days by spectrophotometric based MTT assay; format: functional; conditions: MT4, 120 h, time 5 day
[5] = target: Structural capsid protein (Human immunodeficiency virus 1) (UniProt Q76129); assay: Binding affinity to hexameric HIV-1 NL4.3 capsid protein assessed as dissociation rate (Koff) by SPR assay; conditions: filed as modulator
[6] = tested on: Human immunodeficiency virus 2; assay: Anti-HIV activity against HIV-2 ROD infected in human MT-4 cells assessed as protection against virus-induced cytopathic effect incubated for 5 days by spectrophotometric based MTT assay; format: functional, organism-based; conditions: Human immunodeficiency virus 2, ROD, MT4, 120 h
[7] = tested on: Human immunodeficiency virus 1; assay: Anti-HIV activity against HIV-1 IIIB infected in human MT4 cells assessed as protection against virus-induced cytopathic effect incubated for 5 days by spectrophotometric based MTT assay; conditions: Human immunodeficiency virus 1, IIIB, MT4, 120 h
[8] = Metabolic stability in human liver microsomes assessed as intrinsic clearance at 1 uM incubated for 60 mins by LC-MS/MS analysis; format: ADME, Microsome; conditions: read-out: CLH
[9] = Metabolic stability in human liver microsomes assessed as half life at 1 uM incubated for 60 mins by LC-MS/MS analysis; format: ADME, Microsome
[10] = tested on: Human immunodeficiency virus 1; assay: Anti-HIV activity against wild type HIV-1 IIIB infected in human MT4 cells assessed as protection against virus-induced cytopathic effect incubated for 5 days by spectrophotometric based MTT assay; format: functional, organism-based; conditions: Human immunodeficiency virus 1, IIIB, MT4, 120 h

Which K [1] does the source give for Cc1[nH]c2ccccc2c1CC(=O)N[C@@H](Cc1ccccc1)C(=O)N(C)c1ccccc1 here?
The K was 2.21 10^-1/s.

What about the TIME [2] of the same compound?
Its TIME is 0.00125 h.

And the TIME [3]?
Its TIME is 0.000617 h.

And the CC50 [4]?
Its CC50 is 134 µM.

And the K [5]?
The K was 4.48 10^-1/s.

And the pEC50 [6]?
Its pEC50 is 5.55.

What about the pEC50 [7] of the same compound?
The pEC50 was 6.10.

What about the CLint scaled at 1 µM [8] of the same compound?
Its CLint scaled at 1 µM is 127 L/h/kg.

And the half-life at 1 µM [9]?
The half-life at 1 µM was 42 s.

And the pEC50 [10]?
The pEC50 was 5.98.
